Source: patent US10188743B2, “Cytisine-linked isoflavonoid antineoplastic agents for the treatment of cancer” (UNIVERSITY OF KENTUCKY RESEARCH FOUNDATION, priority 2016, dated 2019)

How the values were obtained:
[1] = tested on: AMPK; assay: AMPK activation (levels of phosphorylated AMPK, Western blotting); type: cell-based
Experimental: (§1) Biochemistry. Western blotting: Cells were lysed in the appropriate volume of lysis buffer (50 mM HEPES, 100 mM NaCl, 2 mM EDTA, 1% glycerol, 50 mM NaF, 1 mM Na3VO4, 1% Triton X-100, with protease inhibitors). The following antibodies were used: HSD17B4 (GeneTex, GTX103864), AMPK (Cell Signaling, 2532), pAMPK (Cell Signaling, 2535), ACC (Cell Signaling, 3676), pACC (Cell Signaling, 11818), p^70 (Cell Signaling, 2708), p-p^70 (Cell Signaling, 9914), S6 (Cell Signaling, 2217), pS6 (Cell Signaling, 4858), MCCA (GeneTex, GTX110062), tubulin (Hybridoma Bank, E7), Actin (Sigma, A1978), His-tag (BD Pharmingen, 552564).

[2] = tested on: acetyl CoA carboxylase (ACC); assay: ACC phosphorylation / activation downstream of AMPK (Western blotting); type: cell-based
Experimental: as §1

[3] = target: T1, HSD17B4 (full-length and truncated constructs) (Homo sapiens, UniProt P51659); assay: Streptavidin bead-based pull-down with purified full-length and truncated HSD17B4 constructs; type: binding; settings: purified protein from E. coli
T1 construct: His-tag; made in house; host or cells: E. coli BL21 (pET28)
T1 sequence (P51659 1-736): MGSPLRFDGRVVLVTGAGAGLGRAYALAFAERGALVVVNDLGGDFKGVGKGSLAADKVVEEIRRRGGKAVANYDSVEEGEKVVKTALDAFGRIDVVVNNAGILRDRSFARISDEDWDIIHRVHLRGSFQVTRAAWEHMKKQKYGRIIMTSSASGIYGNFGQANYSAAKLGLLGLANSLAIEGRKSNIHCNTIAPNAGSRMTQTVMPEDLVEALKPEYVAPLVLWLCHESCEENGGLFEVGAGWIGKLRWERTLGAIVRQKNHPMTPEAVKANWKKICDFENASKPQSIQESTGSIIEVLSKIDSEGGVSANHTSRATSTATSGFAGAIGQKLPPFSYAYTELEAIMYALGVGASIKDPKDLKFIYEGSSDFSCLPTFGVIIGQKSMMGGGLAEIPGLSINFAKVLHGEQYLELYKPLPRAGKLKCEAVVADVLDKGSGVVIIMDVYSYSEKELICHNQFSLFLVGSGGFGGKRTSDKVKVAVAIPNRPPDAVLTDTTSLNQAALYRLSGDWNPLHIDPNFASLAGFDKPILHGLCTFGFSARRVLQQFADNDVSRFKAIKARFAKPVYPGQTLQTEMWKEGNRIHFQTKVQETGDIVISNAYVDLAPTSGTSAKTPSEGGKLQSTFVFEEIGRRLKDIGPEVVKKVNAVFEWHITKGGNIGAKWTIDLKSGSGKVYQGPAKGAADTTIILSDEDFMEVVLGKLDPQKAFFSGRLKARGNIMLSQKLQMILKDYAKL
Text: (§2) We next sought to delineate if these cystisine-linked isoflavonoid inhibitors were selective for one of the two enzymatic activities, either the α,β-dehydrogenase or hydratase activity, found in HSD17B4. We generated a panel of truncated HSD17B4 constructs and purified these truncated proteins as well as the full-length protein from E. coli (FIG. 3A). We evaluated the binding of 15d to these constructs using the streptavidin bead-based pull-down assay.
(§3) Streptavidin-agarose pulldown: Biotinylated compound 15d (FIG. 2A) was incubated with cell lysates and streptavidin beads. The binding proteins were pulled down and analyzed by 4-12% SDS-PAGE as described previously. The protein bands were identified by NanoLC-ESI-MS/MS at ProtTech Inc. For binding and enzymatic assays, His-tagged HSD17B4 constructs were clone and truncated by PCR using pET28. The full-length and truncated proteins were purified from bacteria BL21.

[4] = tested on: HSD17B4 (full-length and truncated constructs); assay: as above; type: binding; settings: purified protein from E. coli
Text: as §2, §3

[5] = target: T2, MCCA (Homo sapiens, UniProt Q96RQ3); assay: Streptavidin-bead pull-down from LS174T cell lysates, validated by Western blot; type: binding
T2 construct: endogenous in cells; host or cells: LS174T colon cancer cells
T2 sequence (Q96RQ3 42-725): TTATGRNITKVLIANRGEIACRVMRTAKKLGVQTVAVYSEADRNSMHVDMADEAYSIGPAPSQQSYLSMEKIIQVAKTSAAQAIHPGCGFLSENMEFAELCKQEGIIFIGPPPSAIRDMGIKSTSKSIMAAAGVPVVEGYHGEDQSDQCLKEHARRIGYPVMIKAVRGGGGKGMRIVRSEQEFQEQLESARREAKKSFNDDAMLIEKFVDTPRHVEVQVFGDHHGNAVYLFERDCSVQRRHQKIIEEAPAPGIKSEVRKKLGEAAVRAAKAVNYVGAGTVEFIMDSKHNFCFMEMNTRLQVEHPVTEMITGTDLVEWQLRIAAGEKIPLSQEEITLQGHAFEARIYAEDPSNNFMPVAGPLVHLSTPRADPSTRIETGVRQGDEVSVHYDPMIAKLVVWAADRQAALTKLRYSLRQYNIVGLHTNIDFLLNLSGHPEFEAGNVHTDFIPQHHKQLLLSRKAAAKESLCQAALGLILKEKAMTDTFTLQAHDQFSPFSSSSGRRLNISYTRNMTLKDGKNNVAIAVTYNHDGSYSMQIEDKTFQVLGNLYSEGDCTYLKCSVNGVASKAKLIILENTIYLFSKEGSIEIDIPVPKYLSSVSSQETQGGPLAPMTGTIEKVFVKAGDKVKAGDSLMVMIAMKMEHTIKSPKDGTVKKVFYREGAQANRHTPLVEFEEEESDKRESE
Experimental: (§4) Identification of the direct target of these AMPK activators involved incubation of 15d with LS174T cell lysates and a subsequent pull-down assay using biotinylated 15d bound to streptavidin beads. The binding proteins were eluted with 2.5 mM biotin and analyzed by 4-12% SDS-PAGE gel using colloidal blue staining (FIG. 2D). We identified two specific bands (F1 and F2) in the 15d-containing sample compared with the control samples containing only beads or only beads and biotin. These two bands were excised from gels and analyzed by NanoLC-ESI-MS/MS. The band F1 (FIG. 2D) contained two proteins: [1] peroxisomal hydroxysteroid 17-dehydrogenase-4 (HSD17B4); and [2] mitochondrial methylcrotonoyl-CoA carboxylase subunit alpha (MCCA). The band F2 also matched HSD17B4.
(§5) The multifunctional nature of HSD17B4 included two of the four enzymatic activities required for the beta-oxidation of very long-chain fatty acids (VLCFA) in the peroxisome. […] The HSD17B4 antibody (GeneTex) recognized the full-length and the C-terminal fragment (FIG. 2E).
(§6) Streptavidin-agarose pulldown: Biotinylated compound 15d (FIG. 2A) was incubated with cell lysates and streptavidin beads. The binding proteins were pulled down and analyzed by 4-12% SDS-PAGE as described previously. […]

[6] = tested on: HSD17B4; assay: as above; type: binding
Experimental: as §4, §5, §6

melting point | Structure (SMILES) | AMPK activation (in words) [1] | AMPK-fold Activation (10 μM) [1] | other results
 | O=c1c(-c2ccc(Cl)cc2)coc2cc(O)ccc12 [Compound 3c, 3-(4-Chlorophenyl)-7-hydroxy-4H-chromen-4-one] | most active AMPK activators |  | activation of acetyl CoA carboxylase [2]: modest activation
 | Cc1oc2cc(OCCCCC(CN3C[C@@H]4C[C@@H](C3)c3cccc(=O)n3C4)=NNC(=O)CCOCCOCCOCCOCCNC(=O)CCCC[C@@H]3SCC4NC(=O)NC43)ccc2c(=O)c1-c1ccc(Cl)cc1 (stereo partly drawn) [Compound 15d, N-(22-((3-(4-chlorophenyl)-2-methyl-4-oxo-4H-chromen-7-yl)oxy)-15-oxo-18-(((1S,5S)-8-oxo-1,5,6,8-tetrahydro-2H-1,5-methanopyrido[1,2-a][,5]diazocin-3(4H)-yl)methyl)-3,6,9,12-tetraoxa-16,17-diazadocos-17-en-1-yl)-5-((4S)-2-oxohexahydro-1H-thieno[3,4-d]imidazol-4-yl)pentanamide] |  |  | interaction with full-length HSD17B4 [3]: interacted; binding to N-terminus-truncated fragment C919 [4]: strongly bound; interaction with C-terminus-truncated fragment N634 [4]: not the C-terminus-truncated fragments N318 and N634, interacted; binding of MCCA in pull-down [5]: non-specific binding protein; binding of HSD17B4 in pull-down [6]: specific binding protein
 | O=c1cccc2n1C[C@H]1C[C@H]2CN(CC(O)CCCCOc2ccccc2)C1 (stereo partly drawn) [Compound 16, (1S,5S)-3-(2-Hydroxy-6-phenoxyhexyl)-3,4,5,6-tetrabydro-1H-1,5-methanopyrido[1,2-a][1,5]diazocin-8(2H)-one] | inactive |  | 
197 to 198 °C | O=c1c(-c2ccccc2)coc2cc(OCCN3C[C@@H]4C[C@H](C3)c3cccc(=O)n3C4)ccc12 [Compound 10a, (1R,5S)-3-(2-((4-Oxo-3-phenyl-4H-chromen-7-yl)oxy)ethyl)-3,4,5,6-tetrahydro-1H-1,5-methanopyrido[1,2-a][1,5]diazocin-8(2H)-one] |  | 3.6 fold | 
 | O=C(CCCCOc1ccccc1)CN1C[C@@H]2C[C@@H](C1)c1cccc(=O)n1C2 [Compound 17, (1S,5S)-3-(2-oxo-6-phenoxyhexyl)-3,4,5,6-tetrahydro-1H-1,5-methanopyrido[1,2-a][1,5]diazocin-8(2H)-one] | inactive |  | 
 | COc1ccc(-c2coc3cc(OCCN4C[C@@H]5C[C@H](C4)c4cccc(=O)n4C5)ccc3c2=O)cc1 [Compound 10b, (1R,5S)-3-(2-((3-(4-Methoxyphenyl)-4-oxo-4H-chromen-7-yl)oxy)ethyl)-3,4,5,6-tetrahydro-1H-1,5-methanopyrido[1,2-a][1,5]diazocin-8(2H)-one] |  | 9.9 fold | 
186 to 187 °C | Cc1oc2cc(OCCN3C[C@@H]4C[C@H](C3)c3cccc(=O)n3C4)ccc2c(=O)c1-c1ccc(Cl)cc1 [Compound 10d, (1R,5S)-3-(2-((3-(4-Chlorophenyl)-2-methyl-4-oxo-4H-chromen-7-yl)oxy)ethyl)-3,4,5,6-tetrahydro-1H-1,5-methanopyrido[1,2-a][1,5]diazocin-8(2H)-one] |  | 2.2 fold | 

Structure (SMILES) | melting point | AMPK activation (in words) [1] | AMPK-fold Activation (10 μM) [1] | other results
Cc1oc2cc(O)ccc2c(=O)c1-c1ccc(Cl)cc1 [Compound 3d, 3-(4-Chlorophenyl)-7-hydroxy-2-methyl-4H-chromen-4-one] | 277 to 278 °C | most active AMPK activators |  | activation of acetyl CoA carboxylase [2]: modest activation
